Reference: patent US20140242093A1, “METHODS AND COMPOSITIONS FOR MODULATING THE INNATE IMMUNE RESPONSE AND/OR MYOGENESIS IN A MAMMALIAN SUBJECT” (FRED HUTCHINSON CANCER RESEARCH CENTER, priority 2011, published 2014)

Tested on: control human primary myoblasts
Assay: Expression microarray of primary myoblasts transduced with lentivirus carrying DUX4-fl, DUX4-s or GFP
Procedure: Primary human myoblasts were collected and cultured as previously described (Snider et al., 2010). Primary myoblasts were maintained at or below 70% confluency for proliferation. For differentiation, cells were allowed to reach 95-100% confluency in growth medium. Once confluency was reached, the cells were changed to differentiation medium (F10 media supplemented with 1% horse serum, 10 μg/mL insulin, and 10 μg/mL transferrin, penicillin/streptomycin) and maintained for 4 days. Human RD cells were grown in DMEM in 10% bovine calf serum (Hyclone) and penicillin/streptomycin. The primary myoblasts were transduced with lentivirus carrying DUX-fl, DUX4- or GFP (MOI=15).
Expression microarrays were performed on the transduced cells at 24 hours after transduction as follows. […] Samples were analyzed by Illumina Human Whole Genome microarrays. Probe intensities were corrected, normalized, and summarized by the Lumi package of Bioconductor (Du et al., 2008). Differentially expressed genes were identified by the LIMMA package of Bioconductor (Wettenhall and Smyth, 2004). Gene set enrichment analysis (GSEA) was performed using the Bioconductor GOstats package (Falcon and Gentleman, 2007).

DUX4-fl: full-length DUX4 protein (SEQ ID NO:110), expressed from lentiviral or pCS2 vectors or in vitro translated
fc of ATRIP (expression array) (Refseq NM_032166.2): −1.006
CEP78 expression fc (Refseq NM_032171.1): 2.035
SON expression fc (Refseq NM_032195.1): 2.055
LARP1B expression fc (Refseq NM_032239.2): 1.858
MED10 expression fc (Refseq NM_032286.2): 1.965
C1orf57 fc (Refseq NM_032324.1): −1.117
ELOF1 expression fc (Refseq NM_032377.3): 1.884
fc of C15orf48 (expression array) (Refseq NM_032413.2): −0.8681
PKIB expression fc (Refseq NM_032471.4): 1.858
KBTBD8 expression fc (Refseq NM_032505.1): 3.076
TMEM185A expression fc (Refseq NM_032508.1): 2.292
PARD6G fc (Refseq NM_032510.3): −1.161
fc of EBPL (expression array) (Refseq NM_032565.2): −1.006
fc of ACCS (expression array) (Refseq NM_032592.3): −1.038
RBBP6 expression fc (Refseq NM_032626.5): 1.986
SPRYD5 expression fc (Refseq NM_032681.1): 8.045
fc of SPPL2A (expression array) (Refseq NM_032802.3): −0.7524
ATOH8 expression fc (Refseq NM_032827.4, cultured human skeletal muscle): −2.073
CORO6 fc (Refseq NM_032854.2): −1.12
fc of TIGD5 (expression array) (Refseq NM_032862.2): −1.003
CASP6 expression fc (Refseq NM_032992.2): 2.035
TRIM5 fc (Refseq NM_033034.1): −1.114
EPSTI1 expression fc (Refseq NM_033255.2, cultured human skeletal muscle): −4.12
TP53INP1 fc (Refseq NM_033285.2): −1.138
CASP1 fc (Refseq NM_033294.2): −1.17
PRIC285 expression fc (Refseq NM_033405.2, cultured human skeletal muscle): −2.608
ZNF622 expression fc (Refseq NM_033414.2): 2.406
PANX2 expression fc (Refseq NM_052839.2): 3.831
fc of C20orf72 (expression array) (Refseq NM_052865.2): −1.04
fc of GBP5 (expression array) (Refseq NM_052942.2): −0.9094
fc of ALPK2 (expression array) (Refseq NM_052947.3): −0.3826
fc of ANTXR1 (expression array) (Refseq NM_053034.1): −1.013
AP1S1 fc (Refseq NM_057089.2): −1.095
CCNE1 expression fc (Refseq NM_057182.1): 1.863
FBXO32 fc (Refseq NM_058229.2): −1.177
CCNT2 expression fc (Refseq NM_058241.1): 1.876
SLC44A1 fc (Refseq NM_080546.3): −1.132
fc of C2orf28 (expression array) (Refseq NM_080592.2): −1.029
DYNLL2 expression fc (Refseq NM_080677.1): 2.736
HOM-TES-103 fc (Refseq NM_080731.1): −1.065
ZNF280A expression fc (Refseq NM_080740.3): 3.798
C20orf127 expression fc (Refseq NM_080757.1, cultured human skeletal muscle): −2.098
fc of PTPRA (expression array) (Refseq NM_080841.2): −1.02
ASB5 fc (Refseq NM_080874.2): −1.135
APBB3 expression fc (Refseq NM_133172.2, cultured human skeletal muscle): −1.994
fc of DIS3L (expression array) (Refseq NM_133375.2): −1.005
C6orf117 expression fc (Refseq NM_138409.1): 2.446
fc of SDSL (expression array) (Refseq NM_138432.2): −1.011
TRIM43 expression fc (Refseq NM_138800.1): 5.806
CMBL expression fc (Refseq NM_138809.3, cultured human skeletal muscle): −1.992
fc of FGD4 (expression array) (Refseq NM_139241.1): −0.5592
ANGPTL4 fc (Refseq NM_139314.1): −1.064
MBD3L2 expression fc (Refseq NM_144614.2): 7.623
JSRP1 fc (Refseq NM_144616.2): −1.175
fc of PPM1M (expression array) (Refseq NM_144641.1): −1.015
fc of C1orf58 (expression array) (Refseq NM_144695.2): −0.4075
FXYD5 fc (Refseq NM_144779.1): −1.065
Cllorf82 expression fc (Refseq NM_145018.2): 2.531
CDC42EP5 fc (Refseq NM_145057.2): −1.137
SPATA18 expression fc (Refseq NM_145263.2, cultured human skeletal muscle): −1.989
MOBKL2C fc (Refseq NM_145279.4): −1.106
ZNF296 expression fc (Refseq NM_145288.1): 5.536
fc of MGST1 (expression array) (Refseq NM_145792.1): −1.032
OSBPL7 fc (Refseq NM_145798.2): −1.145
TP53I3 expression fc (Refseq NM_147184.1, cultured human skeletal muscle): −1.961
fc of GJD3 (expression array) (Refseq NM_152219.3): −1.028
ACPL2 fc (Refseq NM_152282.3): −1.079
fc of C1orf131 (expression array) (Refseq NM_152379.2): −1.023
fc of PPM1K (expression array) (Refseq NM_152542.2): −0.146
C12orf50 expression fc (Refseq NM_152589.1): 4.522
C1orf55 expression fc (Refseq NM_152608.3): 2.049
MLKL expression fc (Refseq NM_152649.1, cultured human skeletal muscle): −2.992
ZSCAN4 expression fc (Refseq NM_152677.1): 8.322
SAMD9L expression fc (Refseq NM_152703.2, cultured human skeletal muscle): −2.532
VWCE expression fc (Refseq NM_152718.2, cultured human skeletal muscle): −3.317
fc of D2HGDH (expression array) (Refseq NM_152783.3): −1.031
FAS fc (Refseq NM_152877.1): −1.133
APCDD1 expression fc (Refseq NM_153000.3, cultured human skeletal muscle): −1.894
PMP22 fc (Refseq NM_153321.1): −1.103
SLC2A14 expression fc (Refseq NM_153449.2): 2.374
CYBASC3 expression fc (Refseq NM_153611.3, cultured human skeletal muscle): −1.945
GPBAR1 expression fc (Refseq NM_170699.2): 1.936
NLRX1 fc (Refseq NM_170722.1): −1.167
fc of HSCB (expression array) (Refseq NM_172002.3): −1.009
fc of ZNF650 (expression array) (Refseq NM_172070.2): −1.016
fc of IL4I1 (expression array) (Refseq NM_172374.1): −0.7571
KLF17 expression fc (Refseq NM_173484.3): 1.779
fc of RCOR2 (expression array) (Refseq NM_173587.2): −1.051
fc of DCBLD1 (expression array) (Refseq NM_173674.1): −0.667
WARS expression fc (Refseq NM_173701.1, cultured human skeletal muscle): −1.917
fc of C3orf38 (expression array) (Refseq NM_173824.2): −0.5458
fc of UBR1 (expression array) (Refseq NM_174916.1): −0.08618
fc of C4orf34 (expression array) (Refseq NM_174921.1): −1.044
FRMD3 fc (Refseq NM_174938.3): −1.116
MT1E expression fc (Refseq NM_175617.3, cultured human skeletal muscle): −2.067
TXLNA fc (Refseq NM_175852.3): −1.157
MT1M expression fc (Refseq NM_176870.2, cultured human skeletal muscle): −2.921
PPAP2A fc (Refseq NM_176895.1): −1.106
CSE1L expression fc (Refseq NM_177436.1): 2.937
PPM1B expression fc (Refseq NM_177968.2): 1.831
fc of STARD13 (expression array) (Refseq NM_178006.1): −1.001
RILPL1 fc (Refseq NM_178314.2): −1.072
HIF1A fc (Refseq NM_181054.1): −1.15
ID1 fc (Refseq NM_181353.1): −1.166
C1QTNF3 expression fc (Refseq NM_181435.4): 1.974
PPP2R2B expression fc (Refseq NM_181677.1): 4.13
PPP2R2C fc (Refseq NM_181876.2): −1.064
BCL9L fc (Refseq NM_182557.2): −1.111
fc of IRF2BP2 (expression array) (Refseq NM_182972.2): −1.041
fc of TRIM69 (expression array) (Refseq NM_182985.3): −1.002
fc of TRIM55 (expression array) (Refseq NM_184086.1): −1.053
RBM39 expression fc (Refseq NM_184234.1): 1.8
INO80C expression fc (Refseq NM_194281.3): 1.98
SPTY2D1 expression fc (Refseq NM_194285.2): 3.286
fc of RNASE4 (expression array) (Refseq NM_194431.1): −1.06
BID fc (Refseq NM_197966.1): −1.078
fc of MZF1 (expression array) (Refseq NM_198055.1): −1.004
fc of ARSK (expression array) (Refseq NM_198150.1): −0.8435
fc of SRC (expression array) (Refseq NM_198291.1): −1.041
fc of APOOL (expression array) (Refseq NM_198450.3): −0.5757
DENND2C expression fc (Refseq NM_198459.2): 2.609
TPRX1 expression fc (Refseq NM_198479.2): 4.483
AGRN expression fc (Refseq NM_198576.2, cultured human skeletal muscle): −2.612
C1QTNF1 expression fc (Refseq NM_198594.1, cultured human skeletal muscle): −3.846
fc of SERPINB8 (expression array) (Refseq NM_198833.1): −0.1046
SEMA4B expression fc (Refseq NM_198925.1, cultured human skeletal muscle): −1.94
C9orf169 expression fc (Refseq NM_199001.1, cultured human skeletal muscle): −2.509
T1560 expression fc (Refseq NM_199048.1): 2.769
XAF1 expression fc (Refseq NM_199139.1, cultured human skeletal muscle): −3.622
SAA1 expression fc (Refseq NM_199161.1, cultured human skeletal muscle): −4.138
C20orf117 fc (Refseq NM_199181.2): −1.08
fc of TMEM189-UBE2V1 (expression array) (Refseq NM_199203.1): −1.036
DGKA expression fc (Refseq NM_201554.1, cultured human skeletal muscle): −1.955
fc of ZMYM3 (expression array) (Refseq NM_201599.1): −1.022
FBXO33 expression fc (Refseq NM_203301.1): 3.22
SYNJ1 expression fc (Refseq NM_203446.1): 2.433
fc of CMPK2 (expression array) (Refseq NM_207315.2): −0.8826
CYP4V2 fc (Refseq NM_207352.2): −1.159
fc of C15orf52 (expression array) (Refseq NM_207380.1): −1.016
FLJ45337 expression fc (Refseq NM_207465.1): 3.685
ATP2B1 fc (Refseq NM_001001323.1): −1.082
FLJ45139 expression fc (Refseq NM_001001692.1): 2.451
OR2T34 expression fc (Refseq NM_001001821.1): 4.519
fc of GPM6B (expression array) (Refseq NM_001001995.1): −0.3998
NT5C1B expression fc (Refseq NM_001002006.1): 3.495
fc of NT5C3 (expression array) (Refseq NM_001002010.1): −0.6592
RAB11FIP1 expression fc (Refseq NM_001002814.1): 1.987
fc of LEPR (expression array) (Refseq NM_001003679.1): −1
ZNF705A expression fc (Refseq NM_001004328.1): 6.832
HIST2H3A expression fc (Refseq NM_001005464.2): 4.945
GBA fc (Refseq NM_001005742.1): −1.065
SIAH1 expression fc (Refseq NM_001006610.1): 3.699
OPTN fc (Refseq NM_001008213.1): −1.113
SLC7A2 expression fc (Refseq NM_001008539.2, cultured human skeletal muscle): −2.482
CXCR4 expression fc (Refseq NM_001008540.1): 2.004
fc of CLSTN1 (expression array) (Refseq NM_001009566.1): −1.009
PRAMEF4 expression fc (Refseq NM_001009611.1): 7.06
C6orf191 expression fc (Refseq NM_001010876.1): 2.091
PRAMEF6 expression fc (Refseq NM_001010889.2): 5.826
PRAMEF9 expression fc (Refseq NM_001010890.1): 7.131
PRAMEF8 expression fc (Refseq NM_001012276.1): 3.701
PRAMEF7 expression fc (Refseq NM_001012277.1): 7.631
